Data: patent publication WO2019242687A1, “1,3-dioxane-4,6-dione compound, and preparation method, pharmaceutical composition, and application thereof” (Shanghai Institute of Materia Medica of CAS, priority 2018, dated 2018)
Positions count from the first letter of the chain named. “Also recorded” adds a separate entry of the source.

Experiments:
[1] = biological target: T1, mini-hSIRT1 protein (SIRT1 Cy5) (Homo sapiens, UniProt Q96EB6); assay: Microscale thermophoresis (MST) binding experiment
T1 sequence (Q96EB6 with tags, fused parts or gaps limits assumed): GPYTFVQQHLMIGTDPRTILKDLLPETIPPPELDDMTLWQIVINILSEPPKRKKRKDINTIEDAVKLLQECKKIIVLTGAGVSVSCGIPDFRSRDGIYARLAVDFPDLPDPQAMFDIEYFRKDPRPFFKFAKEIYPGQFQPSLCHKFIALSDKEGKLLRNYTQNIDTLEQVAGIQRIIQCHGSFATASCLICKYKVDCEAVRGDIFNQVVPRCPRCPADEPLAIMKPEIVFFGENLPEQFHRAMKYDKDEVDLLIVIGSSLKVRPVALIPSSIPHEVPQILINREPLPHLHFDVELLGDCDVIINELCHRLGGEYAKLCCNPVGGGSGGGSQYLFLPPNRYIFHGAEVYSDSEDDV

[2] = biological target: T2, SIRT1 wild type (Homo sapiens, UniProt Q96EB6); assay: Inhibitory constant on SIRT1 wild type; format: biochemical
T2 sequence (Q96EB6 1-747): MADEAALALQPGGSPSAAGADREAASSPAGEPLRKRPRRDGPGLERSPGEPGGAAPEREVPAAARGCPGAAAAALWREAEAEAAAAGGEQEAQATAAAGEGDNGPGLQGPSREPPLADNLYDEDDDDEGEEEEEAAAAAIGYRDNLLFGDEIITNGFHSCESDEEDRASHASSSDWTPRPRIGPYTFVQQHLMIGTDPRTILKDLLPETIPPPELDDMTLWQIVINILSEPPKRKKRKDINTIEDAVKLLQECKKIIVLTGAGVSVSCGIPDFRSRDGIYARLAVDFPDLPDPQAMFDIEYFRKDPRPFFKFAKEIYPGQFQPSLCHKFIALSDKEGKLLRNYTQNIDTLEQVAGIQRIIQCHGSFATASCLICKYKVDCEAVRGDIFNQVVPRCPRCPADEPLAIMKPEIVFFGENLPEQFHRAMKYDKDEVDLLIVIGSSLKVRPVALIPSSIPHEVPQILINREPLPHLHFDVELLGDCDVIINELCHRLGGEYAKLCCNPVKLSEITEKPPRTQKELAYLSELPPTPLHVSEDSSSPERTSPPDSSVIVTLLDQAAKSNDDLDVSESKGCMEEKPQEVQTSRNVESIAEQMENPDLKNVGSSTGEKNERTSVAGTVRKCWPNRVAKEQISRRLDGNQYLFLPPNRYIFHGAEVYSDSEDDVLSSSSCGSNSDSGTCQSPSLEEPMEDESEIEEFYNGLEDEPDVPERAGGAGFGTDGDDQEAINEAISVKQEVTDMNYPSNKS

[3] = biological target: T3, SIRT1 F273L (Homo sapiens, UniProt Q96EB6, F273L); assay: Inhibitory constant on SIRT1 mutant F273L; format: biochemical
T3 construct: made in house
T3 sequence (Q96EB6 1-747 F273L): T2 sequence (Q96EB6 1-747) with F273L

[4] = biological target: T4, SIRT1 I347A (Homo sapiens, UniProt Q96EB6, I347A); assay: Inhibitory constant on SIRT1 mutant I347A; format: biochemical
T4 construct: made in house
T4 sequence (Q96EB6 1-747 I347A): T2 sequence (Q96EB6 1-747) with I347A

[5] = system: p53 acetylation levels in SH-SY5Y human neuroblastoma cells; assay: Effect of compounds on p53 acetylation level in cells (Western blot); format: cell-based; conditions: ATRA-induced differentiation, compound 10 μM, 2 h, Figure 5

Compound: COc1cc(C=C2C(=O)OC(c3ccccc3)OC2=O)cc(Br)c1O (stereo not drawn) [Compound S3, 5-(3-bromo-4-hydroxy-5-methoxybenzylidene) -2-phenyl-1,3-dioxane-4,6-dione]
- type of inhibition toward NAD+ ([1]; MST, Figure 3): non-competitive inhibitor of NAD +
- type of inhibition/binding toward Abz polypeptide ([1]; MST, Figure 3): competitive inhibitor of Abz polypeptide; also recorded: competitively binds to the binding site of the substrate polypeptide Abz
- Kd of binding to SIRT1 (change) ([1]; with 500 μM Abz polypeptide): increased
- binding curve with SIRT1 protein (shift), with Abz polypeptide ([1]; with 500 μM Abz polypeptide): shifted to the right
- binding curve with SIRT1 protein (shift), with NAD+ ([1]; with 5 mM NAD+): did not change significantly
- Ki [2]: 160 nM
- Ki [3]: 850 nM
- Ki [4]: 670 nM
- effect on decrease of p53 acetylation level [5]: 抑制ATRA诱导的SH-SY5Y细胞分化过程中p53乙酰化水平降低
